Measurements published in patent publication US20250170117A1, “MODULATORS OF ACKR3 AND USES THEREOF” (InterAx Biotech AG, priority 2022, published 2025).
Counter-ions that a name gives are not always drawn.

Tests used:
NanoLuc-hACKR3 = target: T1, NanoLuc-hACKR3 (Homo sapiens, UniProt P25106); experiment: NanoBRET binding study (displacement of fluorescently labelled CXCL12); conditions: displacement of 0.3 nM CXCL12-AF647; membranes of HEK293T cells expressing NanoLuc-ACKR3; 1 hour incubation; read-out: Affinity
T1 construct: expressed in transfected cells; host or cells: HEK293T (transient, PEI; membrane preparation)
Experimental: Membranes of HEK293T cells that transiently express the NanoLuc-hACKR3 were produced. 2 million HEK293T cells were seeded per […] dish and were transfected the next day using a DNA/PEI-mix containing 0.25 μg plasmid DNA encoding for the ACKR3, 4.75 μg pcDEF3 plasmid DNA and 30 μg linear PEI. Two days after transfection, cells were collected in PBS and pelleted by centrifugation. Cell pellets were resuspended in ice-cold membrane buffer (15 mM Tris, 0.3 mM EDTA, 2 mM MgCl2, pH 7.4 at 4° C.) and were dounce-homogenized on ice by plunging the pestle […] with 1500 rpm. Cell homogenates were subsequently subjected to two freeze-thaw cycles using liquid nitrogen. Next, the cell homogenates were centrifuged at 40,000 g and pellets were resuspended in Tris-sucrose buffer (20 mM Tris, 250 mM Sucrose, pH 7.4 at 4° C.). Finally, the membrane samples were homogenized using a 23-gauge needle, snap-frozen with liquid nitrogen and stored until further experimentation at −80° C.
Binding reactions were measured in triplicate on white low-volume 384-well plates and started by combining 0.3 nM fluorescently labelled CXCL12 (CXCL12 labelled with a AF647® dye in a molar ratio of dye:peptide of 1:1, purchased from ALMAC, h-SDF-1α (AF647®), cat. No. CAF-11, Sequence:
[…](Ale xa647®)ALN), increasing concentrations of test compound (10^−5 M-10^−11 M) with 35 ng membranes (protein content) per well of HEK293T cells expressing the NanoLuc-ACKR3. All dilutions were prepared in HBSS supplemented with 0.2% BSA. After assembling the binding reaction, the plate was flash-centrifuged at 500 g. Binding reactions were then incubated for 1 hour after which NanoGlo substrate was added (310 times diluted from stock concentration) to a final volume of 13.5 μL. The reaction plate was again pulse-centrifuged to 500 g and the total light intensity was measured for 460 nm wavelength with 80 nm bandwidth and separately for wavelengths ≥610 nm using the PHERAstar-FSX (BMG Labtech, Ortenberg, Germany) with a dual emission filter. The ratio of light intensities (>610 nm over 460 nm) is a measure for the relative binding of CXCL12-A647 to the NanoLuc-ACKR3. The pharmacological data are presented in Appendix 1.

[1] = Single-dose pharmacokinetics study in mice; assay type: in vivo; conditions: male CD1 mice, IP, 30 mg/kg; for pharmacokinetic profiles (half-lives) compared with reference compound: versus ACT-1004-1239; for half-life: mouse, blood, LC-MS/MS, read-out: PK half-life
Experimental: Male CD1 mice were administered IP with compound dissolved in vehicle (10% HP-β-CD in 100 mM Citrate buffer, pH 7) at a dose of 30 mg/kg and mice were sacrificed at different time points (n=3 per time point) following compound administration. Blood samples were harvested at different time points and compound concentration was determined by LC-MS/MS.

[2] = In vitro microsomal stability assay (metabolic stability); assay type: in vitro ADME, mouse; conditions: for half-life at 10 μM: mouse liver microsomes (male CD-1), NADPH regenerative system, 10 μM compound, 15, 30 or 60 minutes; for metabolic stability compared with reference compound: mouse liver microsomes, versus ACT-1004-1239
Experimental: Mouse liver microsomes (from S9 liver fraction from male CD-1 mice) are co-incubated with an NADPH regenerative system (1.3 mM NADP+, 3.3. mM glucose-6-phoase, 3.3 mM MgCl2 and 0.4 units/ml glucose-6-phosphate-dehydrogenase) and 10 μM compound for 15, 30 or 60 minutes. Reaction was terminated by centrifugation at max speed and samples were analyzed by LC-MS.

CXCL12 = experiment: Target engagement study in mice (blood CXCL12 by ELISA); assay type: in vivo; conditions: male CD1 mice, IP, 30 mg/kg; for target engagement compared with reference compound: 16 h, versus ACT-1004-1239
Experimental: Male CD1 mice were administered IP with compound dissolved in vehicle (10% HP-β-CD in 100 mM Citrate buffer, pH 7) at a dose of 30 mg/kg and mice were sacrificed 16 h (n=3 per time point) following compound administration. Blood samples were harvested and CXCL12 concentration was determined by CXCL12 ELISA kit.

T1 sequence (P25106 whole entry): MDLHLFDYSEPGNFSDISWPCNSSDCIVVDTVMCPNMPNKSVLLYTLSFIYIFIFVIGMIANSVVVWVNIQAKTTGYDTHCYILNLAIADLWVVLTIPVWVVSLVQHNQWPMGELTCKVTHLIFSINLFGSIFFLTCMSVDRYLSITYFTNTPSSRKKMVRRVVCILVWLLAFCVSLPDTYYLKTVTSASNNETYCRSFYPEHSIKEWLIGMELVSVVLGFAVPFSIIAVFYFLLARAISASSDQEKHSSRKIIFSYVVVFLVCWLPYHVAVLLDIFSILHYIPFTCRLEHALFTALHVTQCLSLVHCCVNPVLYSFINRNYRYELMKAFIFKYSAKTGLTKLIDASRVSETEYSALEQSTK

| Ki (NanoLuc-hACKR3) [nM] | pharmacokinetic profiles (half-lives) compared with reference compound [1] | half-life [1] [min] | half-life at 10 μM [2] [min] | SMILES | metabolic stability compared with reference compound [2] | target engagement compared with reference compound (CXCL12) | Target engagement (CXCL12 fold-increase) (CXCL12; blood 16 h after administration, CXCL12 ELISA) |
| --- | --- | --- | --- | --- | --- | --- | --- |
| ≤ 100 | better than the reference compound | 120 to 240 | > 600 | O=C(NCC1CCN(C2CCCCC2)CC1)c1cc(-c2ccc(F)cc2F)on1 [Molecule 1, N-[(1-cyclohexylpiperidin-4-yl)methyl]-5-(2,4-difluorophenyl)-1,2-oxazole-3-carboxamide HCl] | comparable or better than the reference compound | comparable or better than the reference compound | – |
| ≤ 100 | better than the reference compound | > 240 | 120 to 240 | O=C(NCC1CCN(Cc2ccc(N3CCCC3)cc2)CC1)c1cc(-c2ccc(F)cc2F)on1 [Molecule 44, 5-(2,4-difluorophenyl)-N-((1-(4-(pyrrolidin-1-yl)benzyl)piperidin-4-yl)methyl)isoxazole-3-carboxamide] | comparable or better than the reference compound | comparable or better than the reference compound | ++ (>3 = ++) |
